According to patent publication US11440913B2, “Aminoimidazopyridazines as kinase inhibitors” (BRISTOL-MYERS SQUIBB COMPANY, priority 2017, dated 2022):
Structures can show the parent of a compound that is named as a salt. Where two headings read alike, the source gives them in different places.

Columns and labels:
[1] = target: His-GST-TVMV-hRIPK1(1-324) (Homo sapiens (Human), UniProt Q13546); experiment: RIPK1 HTRF Binding Assay; conditions: HTRF binding, 1 h at rt; read-out: RIPK1 (IC50)
Method in brief: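 HTRF probe-displacement binding: 1 nM His-GST-TVMV-hRIPK1(1-324) (baculovirus construct), 90.6 nM probe, 0.2 nM anti-GST-Tb in 20 mM HEPES, 10 mM MgCl2, 0.015% Brij-35, 4 mM DTT, 0.05 mg/mL BSA. Incubated 1 h at rt; FRET 520/495 nm ratio, inhibition relative to DMSO-only wells.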

[2] = tested on: MLKL phosphorylation in HT29-L23 human colorectal adenocarcinoma cells; experiment: MLKL Phosphorylation High-Content Assay; type: cell-based; conditions: 6 h, necroptosis induced with TNFα, SMAC mimetic and Z-VAD, read-out: pMLKL (IC50)
Method in brief: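 HT29-L23 cells pretreated 30 min at 37 °C with compound (6.25 to 0.106 μM final), then necroptosis induced with TNFα 35 ng/mL, SMAC mimetic 700 nM and Z-VAD 140 nM for 6 h. Fixed cells immunostained for MLKL pS358 and imaged; IC50 and Ymax from 4-parameter logistic fit.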

Chain of His-GST-TVMV-hRIPK1(1-324) (Q13546 1-324): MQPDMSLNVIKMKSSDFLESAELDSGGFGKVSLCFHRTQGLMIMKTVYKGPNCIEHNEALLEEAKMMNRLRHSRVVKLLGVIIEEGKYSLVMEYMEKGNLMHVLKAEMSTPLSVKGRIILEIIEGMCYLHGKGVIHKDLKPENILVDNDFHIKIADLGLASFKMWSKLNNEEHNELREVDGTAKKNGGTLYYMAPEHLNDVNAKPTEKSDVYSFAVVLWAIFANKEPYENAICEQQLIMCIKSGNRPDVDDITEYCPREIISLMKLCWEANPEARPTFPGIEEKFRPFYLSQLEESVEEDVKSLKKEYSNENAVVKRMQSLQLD

SMILES	IC50 [1]	IC50 ([2]; Homo sapiens)	IC50 [2]
COc1nc(C)c(-c2ccc3nc(NC(C)=O)cn3n2)cc1C(=O)NCC[C@H](O)c1ccc(Cl)cc1 [Example 301, N-[(3S)-3-(4-chlorophenyl)-3-hydroxypropyl]-5-{2-acetamidoimidazo[1,2-b]pyridazin-6-yl}-2-methoxy-6-methylpyridine-3-carboxamide]	25 nM	22 nM	
COc1nc(C)c(-c2ccc3nc(NC(C)=O)cn3n2)cc1C(=O)NCc1ccccc1OC(C)C1CCCC1 (stereo not shown) [Example 302, N-{[2-(1-cyclopentylethoxy)phenyl]methyl}-5-{2-acetamidoimidazo[1,2-b]pyridazin-6-yl}-2-methoxy-6-methylpyridine-3-carboxamide]	25 nM		16 nM
COc1nc(C)c(-c2ccc3nc(NC(C)=O)cn3n2)cc1C(=O)NCc1ccccc1OC(C)C1CCCC1 (stereo not shown) [Example 303, N-{[2-(1-cyclopentylethoxy)phenyl]methyl}-5-{2-acetamidoimidazo[1,2-b]pyridazin-6-yl}-2-methoxy-6-methylpyridine-3-carboxamide]	22 nM		43 nM
COc1nc(C)c(-c2ccc3nc(NC(C)=O)cn3n2)cc1C(=O)NCCc1cccc(OC(F)(F)F)c1 [Example 304, 5-{2-acetamidoimidazo[1,2-b]pyridazin-6-yl}-2-methoxy-6-methyl-N-{2-[3-(trifluoromethoxy)phenyl]ethyl}pyridine-3-carboxamide]	206 nM	67 nM	
COc1nc(C)c(-c2ccc3nc(NC(C)=O)cn3n2)cc1C(=O)NCc1cccc(C(F)(F)F)c1 [Example 305, 5-{2-acetamidoimidazo[1,2-b]pyridazin-6-yl}-2-methoxy-6-methyl-N-{[3-(trifluoromethyl)phenyl]methyl}pyridine-3-carboxamide]	41 nM	77 nM	
COc1nc(C)c(-c2ccc3nc(NC(C)=O)cn3n2)cc1C(=O)NCc1ccccc1OC1CCOC1 (stereo not shown) [Example 306, 5-{2-acetamidoimidazo[1,2-b]pyridazin-6-yl}-2-methoxy-6-methyl-N-{[2-(oxolan-3-yloxy)phenyl]methyl}pyridine-3-carboxamide]	5 nM	6 nM	
COc1nc(C)c(-c2ccc3nc(NC(C)=O)cn3n2)cc1C(=O)NCc1ccccc1OC1CCOC1 (stereo not shown) [Example 307, 5-{2-acetamidoimidazo[1,2-b]pyridazin-6-yl}-2-methoxy-6-methyl-N-{[2-(oxolan-3-yloxy)phenyl]methyl}pyridine-3-carboxamide]	11 nM		5 nM
COc1nc(C)c(-c2ccc3nc(NC(C)=O)cn3n2)cc1C(=O)NCc1c(F)cc(F)cc1OCC1CCCC1 [Example 308, N-{[2-(cyclopentylmethoxy)-4,6-difluorophenyl]methyl}-5-{2-acetamidoimidazo[1,2-b]pyridazin-6-yl}-2-methoxy-6-methylpyridine-3-carboxamide]	8 nM	11 nM	
COc1nc(C)c(-c2ccc3nc(NC(C)=O)cn3n2)cc1C(=O)NCc1cccc(OCC2CC2)c1 [Example 309, N-{[3-(cyclopropylmethoxy)phenyl]methyl}-5-{2-acetamidoimidazo[1,2-b]pyridazin-6-yl}-2-methoxy-6-methylpyridine-3-carboxamide]	19 nM	46 nM	
COc1nc(C)c(-c2ccc3nc(NC(C)=O)cn3n2)cc1C(=O)NCc1ccccc1OCC1CCC(F)(F)CC1 [Example 310, N-({2-[(4,4-difluorocyclohexyl)methoxy]phenyl}methyl)-5-{2-acetamidoimidazo[1,2-b]pyridazin-6-yl}-2-methoxy-6-methylpyridine-3-carboxamide]	21 nM	125 nM	
COc1nc(C)c(-c2ccc3nc(NC(C)=O)cn3n2)cc1C(=O)NCc1cc(OC(F)(F)F)ccc1F [Example 311, 5-{2-acetamidoimidazo[1,2-b]pyridazin-6-yl}-N-{[2-fluoro-5-(trifluoromethoxy)phenyl]methyl}-2-methoxy-6-methylpyridine-3-carboxamide, TFA]	6 nM		4 nM
